Laboratory results: article PMC7259758 (PLoS ONE, 2020)
Where two headings read alike, the source gives them in different places.

What was measured:
[1] = target: T1, SF3B1 (Homo sapiens, UniProt O75533+Q7RTV0); assay: Competitive antagonist assay (TESLR in the presence of SD6 or hit compound); type: cell-based; conditions: 1 h pre-treatment with analog, then 4 μM SD6 for another 4 hours; read-out: IC50 for antagonism of SD6 activity in the TESLR assay
T1 construct: endogenous in cells
Description: SK-MEL-2/Luc-MDM2 stable cells were plated at a density of 20,000 cells/well in 96-well plates and incubated overnight at 37°C in 5% CO2.[27, 28] The following day, cells were treated with 14 analogs using serial dilution for one hour. The list of compounds screened as potential TESLR antagonists are show in SI file. After one-hour pre-treatment, 4 μM of SD6 were added to the pre-treated cells for another 4 hours. Either 0.5% DMSO or serial dilutions of SD6 were used to treat cells for 4 hours as controls. At the end of incubation time, ONE-Glo™ EX reagents (Promega) were added to measure the luciferase activity. […]
Fig 6 Competitive antagonist assay. (Left Panel) The assay that identified two antagonists of SD6 activity in the TESLR screen, which are useful for the determination of SF3B1 binding. Relative luminescent units were plotted against corresponding drug concentrations and fitted with a standard four parameter sigmoidal curve with GraphPad Prism. (Right Panel) The structures of the antagonists and SD6. See SI for chemistry details.
. SK-MEL-2/Luc-MDM2 stable cells were plated at a density of 20000/well in 96-well plates and incubated overnight at 37°C in 5% CO2. […]. After one-hour pre-treatment, serial dilutions of the sudemycinol C were added to the pre-treated cells for another 4 hours. […]. At the end of incubation time, ONE-Glo™ EX reagents (Promega) were added to measure the luciferase activity. […]. DR: dose response.

[2] = system: triple-exon skipping of MDM2 pre-mRNA in SK-MEL-2/Luc-MDM2 cells; assay: TESLR (Triple Exon Skipping Luciferase Reporter) dose response; conditions: for TESLR Maximum fold change: SK-MEL-2/Luc-MDM2 cells, 4 hours, luciferase activity
Description: SK-MEL-2/MDM2-Luc stable cells were cultured in MEM medium with Earle's salts and L-glutamine containing 1 mM sodium pyruvate, 10% FCS and 10 mM Hepes and plated at a density of 10,000/well in 96-well plates and incubated overnight at 37°C in 5% CO2. The following day, cells were treated with serial dilutions of compounds for 4 hrs, ONE-Glo reagents (Promega) were added to measure the luciferase activity on an EnVision plate reader. SD6 and 0.5% DMSO were used as positive and negative controls, respectively. Relative luminescent units were plotted against corresponding drug concentrations and fitted with a standard four parameter sigmoidal curve with GraphPad Prism.
The TESLR assay in SK-MEL-2/Luc-MDM2 cells with 4 hour treatment. SK-MEL-2/Luc-MDM2 stable cells were plated at a density of 20,000 cells/well in 96-well plates and incubated overnight at 37°C in 5% CO2. The following day, cells were treated with either 0.5% DMSO or serial dilution of hits identified from the library screen in 0.5% DMSO for 4 hours. ONE-Glo™ EX reagent (Promega) was added to measure the luciferase activity using an EnVision plate reader. Relative luminescent units were plotted against corresponding drug concentrations and fitted with a standard four parameter sigmoidal curve with GraphPad Prism.
SK-MEL-2/Luc-MDM2 stable cells were plated at a density of 20,000 cells/well in 96-well plates and incubated overnight at 37°C in 5% CO2. The following day, cells were treated with serial dilutions of the indicated compounds for 4 hours and ONE-Glo™ EX reagents (Promega) were added to measure the luciferase activity.

[3] = system: CLK1; design: method as in PMID 29191878; conditions: chemoproteomic analysis; read-out: affinity for CLK1 (IC50); cited from earlier work
[4] = Homo sapiens, SK-MEL-2, 4 h, read-out: TESLR IC50 in inducing triple exon skipping

## CC(C=CC1CC2(CO2)CC(C)(C)O1)=CCC1CCC(NC(=O)C=CC(C)O)CC1 (stereo not shown) [Sudemycinol C, sudemycinol C]
[1]
  IC50: 0.97 µM

## CC(C=CC1CC2(CO2)CC(C)(C)O1)=CCC1OCC(NC(=O)C=CC(C)O)CO1 (stereo not shown) [Sudemycinol E, sudemycinol E]
[1]
  IC50: 16.1 µM

## CN1CC[C@H](c2c(O)cc(O)c3c(=O)cc(-c4ccccc4Cl)oc23)[C@H](O)C1 [flavopiridol]
[2]; [4]
  IC50: > 10 µM

## CC(=O)c1c(C)c2cnc(Nc3ccc(N4CCNCC4)cn3)nc2n(C2CCCC2)c1=O [palbociclib]
[3]
  IC50: 0.276 µM
[2]; Homo sapiens, SK-MEL-2, 4 h, read-out: TESLR IC50 (as printed in Fig 5)
  IC50: ~291 µM
[2]; [4]
  IC50: 10 to 300 µM
[2]
  TESLR Maximum fold change: 2.92

## O=C(O)c1ccc2c(c1)nc(Nc1cccc(Cl)c1)c1ccncc12 [silmitasertib]
[2]; Homo sapiens, SK-MEL-2, 4 h, read-out: TESLR EC50
  EC50: 19.9 µM
[2]; [4]
  IC50: 10 to 300 µM
[2]
  TESLR Maximum fold change: 31.5
